Source: patent US20220151236A1, “NOVEL OXADIAZOLE COMPOUNDS FOR CONTROLLING OR PREVENTING PHYTOPATHOGENIC FUNGI” (PI INDUSTRIES LTD., priority 2019, published 2022)

Experiments:
Phakopsora pachyrhizi = Phakopsora pachyrhizi Test on Soybean (preventive activity, greenhouse); type: in vivo; details: preventive spray on young Soybean plants, inoculated one day after treatment, rated 3, 7, 10 and 15 days after application, read-out: Efficacy (% control), disease severity compared to the untreated check
Procedure, shortened: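 Preventive greenhouse test: young soybean plants sprayed with compound in 2% DMSO/acetone plus emulsified water at stated rates, inoculated one day later with 2×10^5 P. pachyrhizi conidia, held at 22-24° C and 80-90% RH. Disease severity (0-100%) rated 3, 7, 10 and 15 days after application; % control relative to untreated plants.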

Alternaria solani = Alternaria solani (Early Blight of Tomato/Potato): radial mycelial growth on potato dextrose agar; type: cell-based; details: 168 h, potato dextrose agar, 25° C., 60% relative humidity, seven days, read-out: control (radial growth compared to the untreated check)
Protocol: Compounds were dissolved in 0.3% dimethyl sulfoxide and then added to potato dextrose agar medium just prior to dispensing it into petri dishes. 5 mL medium with the compound in the desired concentration was dispensed into 60 mm sterile petri-plates. After solidification each plate was seeded with a 5 mm size mycelial disc taken from the periphery of an actively growing virulent culture plate. Plates were incubated in growth chambers at 25° C. temperature and 60% relative humidity for seven days and then the radial growth was measured and compared to that of the untreated control. Compounds 2 85 89 92 94 108 113 114 131 138 142 143

Pyricularia Oryzae = assay: microbe, parasite or virus in culture; type: cell-based; details: 168 h, read-out: control (radial growth compared to the untreated check)

| SMILES | pest or weed control at 500 ppm (Phakopsora pachyrhizi) [%] | inhibition of growth at 300 ppm (Alternaria solani) [%] | inhibition of growth at 300 ppm (Pyricularia Oryzae) [%] |
| --- | --- | --- | --- |
| COc1ccc(NC(=O)c2cn3ccc(-c4noc(C(F)(F)F)n4)cc3n2)cc1 [Compound 2, N-(4-methoxyphenyl)-7-(5-(trifluoromethyl)-1,2,4-oxadiazol-3-yl)imidazo[1,2-a]pyridine-2-carboxamide] | ≥ 70 | ≥ 70 |  |
| CN(C(=O)c1cn2ccc(-c3noc(C(F)(F)F)n3)cc2n1)c1ccc(Cl)cc1 [Compound 12, N-(4-chlorophenyl)-N-methyl-7-(5-(trifluoromethyl)-1,2,4-oxadiazol-3-yl)imidazo[1,2-a]pyridine-2-carboxamide] | ≥ 70 |  | ≥ 70 |
| O=C(c1cn2ccc(-c3noc(C(F)(F)F)n3)cc2n1)N1CCC1 [Compound 33, azetidin-1-yl(7-(5-(trifluoromethyl)-1,2,4-oxadiazol-3-yl)imidazo[1,2-a]pyridin-2-yl)methanone] | ≥ 70 |  | ≥ 70 |
| O=C(NCc1cn2cc(-c3noc(C(F)(F)F)n3)ccc2n1)c1cccc(Cl)c1 [Compound 85, 3-chloro-N-((6-(5-(trifluoromethyl)-1,2,4-oxadiazol-3-yl)imidazo[1,2-a]pyridin-2-yl)methyl)benzamide] | ≥ 70 | ≥ 70 |  |
| O=C(NCc1cn2cc(-c3noc(C(F)(F)F)n3)ccc2n1)c1ccccn1 [Compound 87, N-((6-(5-(trifluoromethyl)-1,2,4-oxadiazol-3-yl)imidazo[1,2-a]pyridin-2-yl)methyl)picolinamide] | ≥ 70 |  | ≥ 70 |
| O=C(NCc1cn2cc(-c3noc(C(F)(F)F)n3)ccc2n1)c1ccc(OC(F)(F)F)cc1 [Compound 89, 4-(trifluoromethoxy)-N-((6-(5-(trifluoromethyl)-1,2,4-oxadiazol-3-yl)imidazo[1,2-a]pyridin-2-yl)methyl)benzamide] | ≥ 70 | ≥ 70 |  |
| O=C(NCc1cn2cc(-c3noc(C(F)(F)F)n3)ccc2n1)c1cocn1 [Compound 92, N-((6-(5-(trifluoromethyl)-1,2,4-oxadiazol-3-yl)imidazo[1,2-a]pyridin-2-yl)methyl)oxazole-4-carboxamide] |  | ≥ 70 | ≥ 70 |
| O=C(Cc1ccccc1)NCc1cn2cc(-c3noc(C(F)(F)F)n3)ccc2n1 [Compound 94, 2-phenyl-N-((6-(5-(trifluoromethyl)-1,2,4-oxadiazol-3-yl)imidazo[1,2-a]pyridin-2-yl)methyl)acetamide] | ≥ 70 | ≥ 70 |  |
| FC(F)(F)c1nc(-c2ccc3nc(CSc4cccc(Cl)c4)cn3c2)no1 [Compound 103, 3-(2-(((3-chlorophenyl)thio)methyl)imidazo[1,2-a]pyridin-6-yl)-5-(trifluoromethyl)-1,2,4-oxadiazole] | ≥ 70 |  | ≥ 70 |
| FC(F)(F)c1nc(-c2ccc3nc(CSCc4ccccc4)cn3c2)no1 [Compound 108, 3-(2-((benzylthio)methyl)imidazo[1,2-a]pyridin-6-yl)-5-(trifluoromethyl)-1,2,4-oxadiazole] |  | ≥ 70 |  |
| FC(F)(F)c1nc(-c2ccc3nc(CSC4CCCC4)cn3c2)no1 [Compound 113, 3-(2-((cyclopentylthio)methyl)imidazo[1,2-a]pyridin-6-yl)-5-(trifluoromethyl)-1,2,4-oxadiazole] |  | ≥ 70 | ≥ 70 |
| FC(F)(F)c1nc(-c2ccc3nc(CSC4CCCCC4)cn3c2)no1 [Compound 114, 3-(2-((cyclohexylthio)methyl)imidazo[1,2-a]pyridin-6-yl)-5-(trifluoromethyl)-1,2,4-oxadiazole] |  | ≥ 70 | ≥ 70 |
| O=S(=O)(Cc1cn2cc(-c3noc(C(F)(F)F)n3)ccc2n1)c1ccc(F)cc1 [Compound 121, 3-(2-(((4-fluorophenyl)sulfonyl)methyl)imidazo[1,2-a]pyridin-6-yl)-5-(trifluoromethyl)-1,2,4-oxadiazole] | ≥ 70 |  |  |
| COc1ccc(CS(=O)(=O)Cc2cn3cc(-c4noc(C(F)(F)F)n4)ccc3n2)cc1 [Compound 122, 3-(2-(((4-methoxybenzyl)sulfonyl)methyl)imidazo[1,2-a]pyridin-6-yl)-5-(trifluoromethyl)-1,2,4-oxadiazole] | ≥ 70 |  |  |
| [O-][S+](Cc1cn2cc(-c3noc(C(F)(F)F)n3)ccc2n1)c1ccc(Cl)c(Cl)c1 (stereo not drawn) [Compound 126, 3-(2-(((3,4-dichlorophenyl)sulfinyl)methyl)imidazo[1,2-a]pyridin-6-yl)-5-(trifluoromethyl)-1,2,4-oxadiazole] | ≥ 70 |  |  |
| [O-][S+](Cc1cn2cc(-c3noc(C(F)(F)F)n3)ccc2n1)c1cccc(Cl)c1 (stereo not drawn) [Compound 127, 3-(2-(((3-chlorophenyl)sulfinyl)methyl)imidazo[1,2-a]pyridin-6-yl)-5-(trifluoromethyl)-1,2,4-oxadiazole] | ≥ 70 |  |  |
| CS(=O)(=NC(=O)Cc1cn2cc(-c3noc(C(F)(F)F)n3)ccc2n1)c1ccccc1 (stereo not drawn) [Compound 129, N-(methyl(oxo)(phenyl)-λ^6-sulfanylidene)-2-(6-(5-(trifluoromethyl)-1,2,4-oxadiazol-3-yl)imidazo[1,2-a]pyridin-2-yl)acetamide] | ≥ 70 |  |  |
| CS(=O)(=NC(=O)Cc1cn2cc(-c3noc(C(F)(F)F)n3)ccc2n1)c1ccccc1F (stereo not drawn) [Compound 130, N-((2-fluorophenyl)(methyl)(oxo)-λ^6-sulfaneylidene)-2-(6-(5-(trifluoromethyl)-1,2,4-oxadiazol-3-yl)imidazo[1,2-a]pyridin-2-yl)acetamide] | ≥ 70 |  |  |
| CS(=O)(=NC(=O)Cc1cn2cc(-c3noc(C(F)(F)F)n3)ccc2n1)c1cccc(F)c1 (stereo not drawn) [Compound 131, N-((3-fluorophenyl)(methyl)(oxo)-λ^6-sulfaneylidene)-2-(6-(5-(trifluoromethyl)-1,2,4-oxadiazol-3-yl)imidazo[1,2-a]pyridin-2-yl)acetamide] |  | ≥ 70 |  |
| COCCS(=O)(=NC(=O)Cc1cn2cc(-c3noc(C(F)(F)F)n3)ccc2n1)c1ccc(Cl)cc1 (stereo not drawn) [Compound 136, N-((4-chlorophenyl)(2-methoxyethyl)(oxo)-λ^6-sulfaneylidene)-2-(6-(5-(trifluoromethyl)-1,2,4-oxadiazol-3-yl)imidazo[1,2-a]pyridin-2-yl)acetamide] |  |  | ≥ 70 |
| CS(=O)(=NC(=O)Cc1cn2cc(-c3noc(C(F)(F)F)n3)ccc2n1)c1cc(Cl)cc(Cl)c1 (stereo not drawn) [Compound 140, N-((3,5-dichlorophenyl)(methyl)(oxo)-λ^6-sulfaneylidene)-2-(6-(5-(trifluoromethyl)-1,2,4-oxadiazol-3-yl)imidazo[1,2-a]pyridin-2-yl)acetamide] |  |  | ≥ 70 |
| CS(=O)(=NC(=O)Cc1cn2cc(-c3noc(C(F)(F)F)n3)ccc2n1)c1ccc(Cl)c(Cl)c1 (stereo not drawn) [Compound 143, N-((3,4-dichlorophenyl)(methyl)(oxo)-λ^6-sulfaneylidene)-2-(6-(5-(trifluoromethyl)-1,2,4-oxadiazol-3-yl)imidazo[1,2-a]pyridin-2-yl)acetamide] |  | ≥ 70 |  |
| Cc1ccccc1S(C)(=O)=NC(=O)Cc1cn2cc(-c3noc(C(F)(F)F)n3)ccc2n1 (stereo not drawn) [Compound 148, N-(methyl(oxo)(o-tolyl)-λ^6-sulfaneylidene)-2-(6-(5-(trifluoromethyl)-1,2,4-oxadiazol-3-yl)imidazo[1,2-a]pyridin-2-yl)acetamide] |  | ≥ 70 |  |
| CS(=O)(=NC(=O)Cc1cn2cc(-c3noc(C(F)(F)F)n3)ccc2n1)c1cccc(Cl)c1 (stereo not drawn) [Compound 149, N-((3-chlorophenyl)(methyl)(oxo)-λ^6-sulfaneylidene)-2-(6-(5-(trifluoromethyl)-1,2,4-oxadiazol-3-yl)imidazo[1,2-a]pyridin-2-yl)acetamide] |  | ≥ 70 |  |
| CS(=O)(Cc1cn2ccc(-c3noc(C(F)(F)F)n3)cc2n1)=NC(=O)c1ccccc1C(F)(F)F (stereo not drawn) [Compound 161, N-(methyl(oxo)((7-(5-(trifluoromethyl)-1,2,4-oxadiazol-3-yl)imidazo[1,2-a]pyridin-2-yl)methyl)-λ^6-sulfanylidene)-2-(trifluoromethyl)benzamide] |  |  | ≥ 70 |
| N=S(=O)(Cc1cn2ccc(-c3noc(C(F)(F)F)n3)cc2n1)c1ccccc1 (stereo not drawn) [Compound 164, imino(phenyl)((7-(5-(trifluoromethyl)-1,2,4-oxadiazol-3-yl)imidazo[1,2-a]pyridin-2-yl)methyl)-λ^6-sulfanone] | ≥ 70 |  |  |
| COc1ccc(S(=N)(=O)Cc2cn3ccc(-c4noc(C(F)(F)F)n4)cc3n2)cc1 (stereo not drawn) [Compound 165, imino(4-methoxyphenyl)((7-(5-(trifluoromethyl)-1,2,4-oxadiazol-3-yl)imidazo[1,2-a]pyridin-2-yl)methyl)-λ^6-sulfanone] | ≥ 70 |  |  |
| N=S(=O)(Cc1cn2ccc(-c3noc(C(F)(F)F)n3)cc2n1)c1ccc(Cl)cc1 (stereo not drawn) [Compound 166, (4-chlorophenyl)(imino)((7-(5-(trifluoromethyl)-1,2,4-oxadiazol-3-yl)imidazo[1,2-a]pyridin-2-yl)methyl)-λ^6-sulfanone] | ≥ 70 |  |  |
